In paper PMC8705693, “Roles of the Na^+/H^+ Exchanger Isoform 1 and Urokinase in Prostate Cancer Cell Migration and Invasion” (International Journal of Molecular Sciences, 2021):
“Also recorded” adds a separate entry of the source.

Legend:
DU 145 = tested on: DU 145; set-up: method as in PMID 9044824; conditions: DU 145 xenografted SCID mice, high doses; cited from earlier work
LNCaP = tested on: LNCaP; set-up: method as in PMID 9044824; conditions: LNCaP xenografted SCID mice, high doses; cited from earlier work
NHE1 [1] = tested on: NHE1; set-up: method as in PMID 21544803; conditions: cited from earlier work
NHE1 [2] = target: T1, NHE1 (Homo sapiens, UniProt P19634); assay: Na+/H+ exchanger activity, double ammonium chloride pulse assay in DU 145 cells; assay type: cell-based
T1 construct: the activity of the NHE1 protein in DU 145 cells; host or cells: DU 145 human prostate cancer cells
Experimental: We next tested the efficacy of a new family of NHE inhibitors on the activity of the NHE1 protein in DU 145 cells. In order to do this, we used a double-pulse assay, in which there were two consecutive ammonium-chloride-induced acidifications. The rate of recovery in the second pulse in the presence of the inhibitor was measured relative to that of the first pulse in the absence of the inhibitor. In control experiments, we observed that the second pulse, in the absence of the inhibitor, was equivalent to that of the first (Figure 3A). […] A summary of the results is shown in Figure 3C–G, [32] and a summary of the IC50 values can be found in Table 1. […]
Figure 3 Characterization of the effects of pharmacological compounds on the activity of the Na^+/H^+ exchanger using the double-pulse assay. Na^+/H^+ exchanger activity was determined as described in Figure 2 and in the Section 4, using a dual ammonium chloride pulse assay. The rate of recovery in the first pulse, in the absence of the drug, was measured. […]
Intracellular pH was measured using 2′,7-bis(2-carboxyethyl)-5(6) carboxyfluorescein acetoxymethyl ester (BCECF-AM), in a similar manner to that described in [29]. […] Cells were loaded with BCECF and fluorescence was measured using a PTI Deltascan spectrofluorometer. NHE1 activity was measured after inducing an acute acid load using ammonium chloride. […]

uPA = uPA (Homo sapiens, UniProt P00749); assay: uPA activity assay; assay type: biochemical
Experimental: We next tested the efficacy of a new family of NHE inhibitors on the activity of the NHE1 protein in DU 145 cells. In order to do this, we used a double-pulse assay, in which there were two consecutive ammonium-chloride-induced acidifications. The rate of recovery in the second pulse in the presence of the inhibitor was measured relative to that of the first pulse in the absence of the inhibitor. In control experiments, we observed that the second pulse, in the absence of the inhibitor, was equivalent to that of the first (Figure 3A). […] A summary of the results is shown in Figure 3C–G, [32] and a summary of the IC50 values can be found in Table 1. The various compounds tested had differing potencies towards NHE1 activity. […] Figure 3C–G also show the inhibition of uPA activity for each compound on the same plots (red line), assayed as indicated in the Section 4. […] (Table 1).
Synthesis of NHE1/uPA inhibitors was as described previously, as was the determination of uPA activity, where each compound was described as the number in parentheses: BB2-50F (5), BB2-30F (26), AA1-111 (29), and AA1-135 (30).

NHE1 [3] = target: T1, NHE1; assay: Na+/H+ exchanger activity, recovery from acute acid load (BCECF); assay type: cell-based; conditions: 10 µM
Excerpt: In the next series of experiments, we used NHE1 activity assays to examine the activity of wild-type DU 145 cells and the knockout cell line. […] For the wild type, it illustrates the initial pH, alkalinization caused by ammonium chloride, and the recovery from acidification caused by the removal of ammonium chloride. The recovery upon reintroduction of NaCl is illustrated for both wild-type and knockout cells (Figure 2A,B), and a summary of six experiments is shown in Figure 2E. For wild-type cells, the recovery was robust, at a rate of over 0.008 pH units/s. […] This may be due to either leakage out of the cell, or to the action of other proton transporters present in cells. […]
Figure 2 Na^+/H^+ exchanger activity in parental DU 145 cells, in NHE1-knockout cells (NHE1-KO), and in knockout cells that had NHE1 reintroduced (NHE1-RI). […] The intracellular pH was recorded in cells transiently acidified using ammonium chloride addition. […] (E) Bar graph showing a summary of the initial rate of recovery; this was measured relative to the wild-type protein and recorded as delta pH/s. n ≥ 6, mean +/− SE. […] The activity of NHE1 was calculated from the changes over the first 20 s of recovery from the acid load, and was expressed as ΔpH/s. […]
Intracellular pH was measured using 2′,7-bis(2-carboxyethyl)-5(6) carboxyfluorescein acetoxymethyl ester (BCECF-AM), in a similar manner to that described in [29]. […]

DU 145 cells [4] = assay: Cell migration, wound-healing assay; assay type: cell-based, human
Experimental: Figure 4 Effects of NHE1-KO or NHE1 inhibition on cell migration examined in wild-type (WT) and NHE1-knockout (KO) DU 145 cells. The rate of closure of the induced gap was evaluated using the wound-healing assay, as described in the Section 4. (A) Examples of the effects of NHE1-KO on wound closure. Upper panel: example of WT DU 145 cells with gaps at 0 and 24 h. Middle panel: example of DU 145 NHE1 KO cells at 0 and 24 h. Lower panel: example of RI cell growth. (B) Summary of results; * indicates significant differences from the same group at 0 h, p < 0.05, n ≥ 6. (C,D) Effects of different concentrations of various NHE1/uPA inhibitors on migration (gap closure) of DU 145 cells. CT: control; EMD: EM87580; other compounds are as names. (C) Summary of the effects of 2 µM of various compounds on the migration of wild-type DU 145 cells. (D) Summary of the effects of 10 µM of various compounds on the migration of wild-type DU 145 cells (BB2-30F was used at 30 µM); * indicates significant differences from untreated control cells at p < 0.05.
Cell migration was studied using a wound-healing assay similar to that described in [13]. Briefly, cells were seeded in 12-well plates ([…]) the day before assay, and then grown to a confluent monolayer. A “scratch” was created in the cell monolayer with a p20 pipette tip in a straight line. The cells were washed twice with PBS to remove the debris, and the medium was changed to 2 mL of growth medium. To obtain the same field during image acquisition, three crosses were marked on the outside of each well as a reference. The scratch gaps above and below the crosses were measured. We acquired six images of the scratch for each well using a Leica DM IRB microscope (at 10× magnification). Arbitrary measurements of gap closure were quantified using Image-Pro Plus software. A minimum of six images/well and five measurements/image were acquired for each treatment; all treatments were repeated at least three times. Data shown are representative of the decrease in gap distance at 24 h, compared to the initial measurement at 0 h. […]

DU 145 cells [5] = assay: Anchorage-dependent colony formation; assay type: cell-based, human; conditions: 10 µM, 8 days
Experimental: To examine anchorage-dependent colony formation, we used 60 mm polystyrene dishes that had been coated to introduce hydrophilic groups producing a standard growth surface (Sarstedt, Numbrecht, Germany). To measure anchorage-dependent colony growth, the cells were plated into in the 60 mm dishes at a density of 1000 cells per dish. They were grown in complete growth media. To examine the effects of various compounds, 2–30 µM of the indicated drugs were added to culture dishes. An equal volume of DMSO (vehicle) alone was added to otherwise-untreated controls. After growth for 8 days, colonies were fixed in ice-cold methanol; they were stained with 0.5% crystal violet in methanol and washed, and then left to air-dry. The colonies of > 50 cells/colony were imaged and counted. The number of […] colonies was normalized to the number of control colonies and presented as a percentage of control colonies formed.

T1 sequence (P19634 whole entry): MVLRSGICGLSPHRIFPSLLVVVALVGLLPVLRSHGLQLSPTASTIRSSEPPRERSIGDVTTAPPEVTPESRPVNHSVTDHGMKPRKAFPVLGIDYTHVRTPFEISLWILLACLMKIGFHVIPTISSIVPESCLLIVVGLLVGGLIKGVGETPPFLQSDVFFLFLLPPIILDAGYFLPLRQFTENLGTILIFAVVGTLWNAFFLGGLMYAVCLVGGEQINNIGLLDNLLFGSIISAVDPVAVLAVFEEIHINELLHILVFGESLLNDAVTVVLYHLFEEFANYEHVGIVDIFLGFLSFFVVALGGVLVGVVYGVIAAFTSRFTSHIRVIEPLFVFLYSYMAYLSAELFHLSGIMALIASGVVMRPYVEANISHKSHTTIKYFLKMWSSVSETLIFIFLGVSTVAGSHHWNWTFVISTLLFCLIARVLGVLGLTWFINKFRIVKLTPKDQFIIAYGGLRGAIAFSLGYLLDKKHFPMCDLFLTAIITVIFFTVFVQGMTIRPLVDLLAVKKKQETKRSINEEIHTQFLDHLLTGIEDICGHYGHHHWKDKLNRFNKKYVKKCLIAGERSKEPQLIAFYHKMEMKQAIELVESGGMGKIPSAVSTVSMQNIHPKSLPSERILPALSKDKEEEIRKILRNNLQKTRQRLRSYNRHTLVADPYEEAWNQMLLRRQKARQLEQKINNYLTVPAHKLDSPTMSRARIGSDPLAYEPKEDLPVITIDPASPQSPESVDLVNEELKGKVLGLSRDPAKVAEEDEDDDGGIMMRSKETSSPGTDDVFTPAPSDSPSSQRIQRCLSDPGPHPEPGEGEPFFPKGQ

Compound | tumor growth (DU 145) | tumor growth (LNCaP) | inhibition of NHE1 (in words) (NHE1 [1]) | NHE1 inhibition (in words) (NHE1 [2]; 2 µM) | IC50 (NHE1 [2]; DU 145 cells, double-pulse assay, read-out: Potency (IC50) towards NHE1) [nM] | inhibition of uPA activity (in words) (uPA) | uPA inhibition (in words) (uPA; 2 µM) | NHE1 activity (initial rate of recovery) (NHE1 [3]; RI cells (NHE1 reintroduced into KO DU 145)) | NHE1 activity (initial rate of recovery) (NHE1 [3]; wild-type DU 145 cells) | cell migration (DU 145 cells [4]; 2 µM, DU 145) | cell migration (gap closure) (DU 145 cells [4]; 10 µM, 24 h, wild-type DU 145) | migration (gap closure) (DU 145 cells [4]; any of the groups, including wild-type and RI DU 145 cells) | anchorage-dependent colony formation (DU 145 cells [5])
N=C(N)NC(=O)c1nc(Cl)c(N)nc1N [Amiloride] | inhibit | inhibit | low μM inhibitor | – | – | – | – | – | – | – | – | – | –
[H]/N=C(\N)NC(=O)c1cc(S(C)(=O)=O)c(S(C)(=O)=O)cc1C [EMD87580, rimeporide] | – | – | – | complete NHE1 inhibition | 450 | no inhibitory activity; also recorded: no effect on uPA | minimal inhibition of uPA | eliminated | eliminated | lack of effect | only very slight, non-significant effects | did not reduce migration | no effect
